Molecules are shown by their SMILES. Entries after “also recorded” stand apart in the source; their conditions may differ.

Data on one compound can be found in patent US20260355199A1, “COMPOSITIONS AND METHODS FOR TREATING OR PREVENTING NONALCOHOLIC STEATOHEPATITIS (NASH), ANOREXIA, DEPRESSION, ENDOMETRIOSIS, AND OTHER DISEASES OR DISORDERS” (priority 2022, published 2026).

One series deals with AGRP, NPY and SLC32A1. The series is described as follows: AGRP, NPY and SLC32A1 mRNA in SH-SY5Y cells. Type of series: cell-based, human. The settings on record: 10 μM, 48 h. An excerpt: Mouse GT1-7 hypothalamic neuronal cell line (Sigma-Aldrich, SCC116) and human SH-SY5Y neuroblastoma cell line (Sigma Aldrich, 94030304) were purchased and cultured according to the manufacturers' instructions. Purified Ad-TET3 adenovirus (Ad-FLAG.h-TET3, ADV-225322, Vector Biolabs) expressing human TET3 from a CMV promoter and Ad-GFP control adenovirus (1060, Vector Biolabs) were purchased.
For Bobcat339 treatment (FIG. 15A and FIG. 15B), GT1-7 cells grown in 24-well plates at 2×10^5 cells/well were incubated with vehicle or Bobcat339 at a final concentration of 10 μM for 6 h, followed by RNA and protein extractions. […] Protein and RNA were isolated 48 h later and analyzed.
Total RNAs were extracted from neuronal cells or homogenized hypothalamic arcuate nucleus tissue samples using PureLink RNA Mini Kit (Ambion, 12183025). cDNA was synthesized using PrimeScript RT Reagent Kit in a 20 μl reaction containing 0.5-1 μg of total RNA. Real-time quantitative PCR was performed in a 15 μl reaction containing 0.5-1 μl of cDNA using SsoAdvanced Universal SYBR Green Supermix in a Bio-Rad iCycler. […]

Another series deals with AgRP neurons. The series is described as follows: AgRP neuron viability and activation (FOS). Type of series: in vivo, mouse. Conditions: Bobcat339 vs. vehicle mice. An excerpt: As genetic TET3 knockdown specifically in AgRP neurons activated these neurons (Xie et al., 2022, J Clin Invest, 132), additional studies tested whether Bobcat339 treatment can activate AgRP neurons using FOS (a marker for neuronal activation) as a readout. Thus, ARCs were isolated under fed conditions (9:00-11:00) from mice treated with Bobcat339 or vehicle as above (FIG. 16A through FIG. 16D).
Bobcat339 powder (Sigma-Aldrich, SML2611) was freshly dissolved in DMSO (vehicle) at a concentration of 50 mg/mL and filtered through a 0.22 micron. It was further diluted with 1×PBS to a final concentration of 0.5 mg/mL before injections. Mice were injected intraperitoneally with Bobcat339 at 1 mg/kg, 2.5 mg/kg, or 4 mg/kg.
The immunofluorescence for brain slices was conducted using previous methods (18). In brief, postfixed sections were cut into 40-μm-thick sections, followed by 5 times washing. […] The sections were coverslipped and scoped using a Keyence BZ-X700 fluorescence microscope. The fluorescence signals from GFP in AgRP neurons were detected without immunostaining.

A short description of series [1]: Energy expenditure and feeding of mice given Bobcat339. Type of series: in vivo, mouse.

Take `Nc1nc(=O)n(-c2cccc(-c3ccccc3)c2)cc1Cl` [Bobcat339, 4-Amino-1-[1,1′-biphenyl]-3-yl-5-chloro-2(1H)-pyrimidinone]: the “AGRP, NPY and SLC32A1 mRNA levels” value with AGRP, NPY and SLC32A1 was “significant increases in Agrp/NPY mRNAs”. The “AgRP neuronal viability / number” value in the series with AgRP neurons is “did not affect AgRP neuronal viability; also recorded: no significant difference between the groups”. Moreover, in the series on AgRP neurons (fed), the “FOS expression in AgRP neurons” value was “increased expression of FOS in AgRP neurons”. In addition, in series [1] (drinking water or i.p.), the feeding entry was “induced hyperphagia”, the liver toxicity result was “without showing evidence of liver toxicity” and the resting energy expenditure result is “decreases resting energy expenditure”. In addition, the “appetite stimulation by route” value in series [1] (oral and intraperitoneal) is “able to stimulate appetite via multiple routes of administration”.
